# Where two headings read alike, the source gives them in different places.
# Columns and labels:
# sigma receptor [1] = experiment: Binding affinity for the sigma receptor ([3H]-DTG binding test); design: species or system Wistar strain male rat; details: [3H]-DTG 3 nM, rat whole brain membrane, 25° C., 60 minutes; ± SED; read-out: Inhibitory activity IC50
# Method: Binding affinity for the sigma receptor
# A membrane fraction was prepared and a [^3 H]-1,3-di[2-tolyl]guanidine (DTG) binding test was performed, both by the method of Wettstein et al. [Wettstein, J. F., Romman, F. J., Rocher, M. N. and Junien, J. L., Psychopharmacology, 104, 157-163 (1991)]. Thus, a Wistar strain male rat was decapitated and the whole brain was excised and homogenized in 30 volumes of ice-cooled 50 mM Tris hydrochloride buffer (pH 7.4). The homogenate was then centrifuged at 4° C. and 50,000 g for 15 minutes. The sediment obtained was suspended in one volume of the same buffer as mentioned above and, after 45 minutes of incubation at 37° C., the suspension was centrifuged again. The sediment obtained was suspended in one volume of the same buffer and the suspension was stored frozen at -80° C. until use.
# The binding experiment was performed as follows. […]
# The filter was transferred to a vial and after addition of 5 ml of a liquid scintillation cocktail (Aquasol 2), the vial was allowed to stand in the dark for a predetermined time. The radioactivity was then measured using a scintillation counter. The amount of specific binding was determined by subtracting the binding amount in the presence of 10 μM haloperidol from the total binding amount. The IC50 values were calculated by computer analysis using the nonlinear least squares method.
# [2] = tested on: mouse model of coma following head injury; experiment: Evaluation of disturbance-of-consciousness improving effect in a mouse model of coma following head injury; format: in vivo; details: Oral, 30 mg/kg
# sigma receptor [3] = experiment: Antagonistic experiment with sigma receptor antagonists on the disturbance-of-consciousness improving effect; format: in vivo; details: 10 mg/kg, alone
# Method: Antagonistic experiment with sigma receptor antagonists
# Whether the improving effect of sigma receptor agonists on impaired consciousness is due to their effect on specific receptors was investigated using test compounds 14 and 15 which are sigma receptor antagonists. […] Similarly, the disturbance-of-consciousness improving effect of test compounds 10 and 12 was inhibited by 30 mg of another sigma receptor antagonist test compound 15.
# [4] = literature; cited from earlier work
# sigma receptors = details: cited from earlier work
# [5] = literature (Brain and Nerve, 39:983-990, 1987); cited from earlier work
compound,measurement,setting,value
COc1cccc(N2CCN(CCCN3C(=O)CCc4c(Cl)cccc43)CC2)c1 [Example 2],IC50,sigma receptor [1],130 ± 16 nM
same,RR time (time to recovery of righting reflex),[2],28 % of control
same,SM time (time to recovery of spontaneous mobility),[2],28 % of control
"COc1cccc2c1CCC(=O)N2CCCN1CCN(c2cccc(Cl)c2)CC1.Cl [Test compound 1, 1-{3-[4-(3-Chlorophenyl)-1-piperazinyl]propyl}-5-methoxy-3,4-dihydrocarbostyril hydrochloride]",RR time,sigma receptor [3],32 % control
same,SM time,sigma receptor [3],38 % control
same,IC50,sigma receptor [1],340 ± 110 nM
same,RR time (time to recovery of righting reflex),[2],20 % of control
same,SM time (time to recovery of spontaneous mobility),[2],20 % of control
CC(=O)OCC[N+](C)(C)C [acetylcholine],side effects,[4],serious side effects
O=C(CCCN1CCC(O)(c2ccc(Cl)cc2)CC1)c1ccc(F)cc1 [haloperidol],side effects,[4],dystonia
same,affinity for sigma receptors,sigma receptors,have affinities for these receptors
same,effect on impaired consciousness,[5],delays recovery from coma
CN[C@@H](C)Cc1ccccc1 [methamphetamine],side effects,[4],may produce an addictive behavior as well as schizophrenic responses such as hallucinations and delusion
same,effect on impaired consciousness,[5],improves impaired consciousness
CC[C@@H](CO)NC(=O)[C@@H]1C=C2c3cccc4c3c(cn4C)C[C@H]2N(C)C1 [methysergide],effect on impaired consciousness,[5],improves impaired consciousness
c1ccc(C2(N3CCCCC3)CCCCC2)cc1 [phencyclidine],side effects,[4],induces schizophrenic responses such as hallucinations and delusion
same,affinity for sigma receptors,sigma receptors; literature,having an affinity for sigma receptors
CNC(=O)Oc1ccc2c(c1)[C@]1(C)CCN(C)[C@@H]1N2C [physostigmine],effect on impaired consciousness,[5],effective in improving disturbances of consciousness at low non-toxic doses

# — patent publication US5556857A, “Disturbance-of-consciousness improving agent” (priority 1991, dated 1996)
